In US20130303509A1, “NAMPT INHIBITORS” (AbbVie Inc., priority 2012, published 2013):

What was measured:
[1] = tested on: activated T cells; details: cited from earlier work
[2] = collagen induced arthritis; cited from earlier work
[3] = model of T-cell mediated autoimmune disorders; cited from earlier work
[4] = tested on: PC3 cells; experiment: NAMPT Cell Proliferation Assay; assay type: cell-based; details: Homo sapiens, PC-3, 120 h, 5 days incubation, cell viability by Cell Titer Glo
In short: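 Seeded at 500 cells/well in RPMI with 10% heat-inactivated FBS and left to attach overnight at 37° C, 5% CO2. Compounds were added as 10-fold dilutions […] for 5 days, then viability was read by CellTiter-Glo. IC50s came from sigmoidal fits of percent inhibition.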

SMILES	proliferation and apoptosis of activated T cells [1]	efficacy in animal models of arthritis [2]	manifestations of experimental autoimmune encephalomyelitis [3]	IC50 [4]
O=C(/C=C/c1cccnc1)NCCCCC1CCN(C(=O)c2ccccc2)CC1 [FK866]	selectively block proliferation and induce apoptosis	efficacious	ameliorated the manifestations	–
O=C(Nc1ccc(C2CCN(C(=O)c3cc(Cl)cc(Cl)c3)CC2)cc1)[C@H]1CCN(c2cccnn2)C1 [Example 684, (3S)-N-{4-[1-(3,5-dichlorobenzoyl)piperidin-4-yl]phenyl}-1-(pyridazin-3-yl)pyrrolidine-3-carboxamide]	–	–	–	0.0766 µM
Cc1ccsc1C(=O)N1CCC(c2ccc(NC(=O)C3CN(c4cccnc4)C3)cc2)CC1 [Example 111, N-(4-{1-[(3-methylthiophen-2-yl)carbonyl]piperidin-4-yl}phenyl)-1-(pyridin-3-yl)azetidine-3-carboxamide]	–	–	–	0.00064 µM
